{
  "source": "paper PMC6430017",
  "about": "“Structural and chemical insights into the covalent-allosteric inhibition of the protein kinase Akt” (Chemical Science, 2019)",
  "key": {"PTK2 (FAK)": {"molecular_target": "PTK2 (FAK) (Homo sapiens, UniProt Q05397)", "sequence (Q05397 whole entry)": "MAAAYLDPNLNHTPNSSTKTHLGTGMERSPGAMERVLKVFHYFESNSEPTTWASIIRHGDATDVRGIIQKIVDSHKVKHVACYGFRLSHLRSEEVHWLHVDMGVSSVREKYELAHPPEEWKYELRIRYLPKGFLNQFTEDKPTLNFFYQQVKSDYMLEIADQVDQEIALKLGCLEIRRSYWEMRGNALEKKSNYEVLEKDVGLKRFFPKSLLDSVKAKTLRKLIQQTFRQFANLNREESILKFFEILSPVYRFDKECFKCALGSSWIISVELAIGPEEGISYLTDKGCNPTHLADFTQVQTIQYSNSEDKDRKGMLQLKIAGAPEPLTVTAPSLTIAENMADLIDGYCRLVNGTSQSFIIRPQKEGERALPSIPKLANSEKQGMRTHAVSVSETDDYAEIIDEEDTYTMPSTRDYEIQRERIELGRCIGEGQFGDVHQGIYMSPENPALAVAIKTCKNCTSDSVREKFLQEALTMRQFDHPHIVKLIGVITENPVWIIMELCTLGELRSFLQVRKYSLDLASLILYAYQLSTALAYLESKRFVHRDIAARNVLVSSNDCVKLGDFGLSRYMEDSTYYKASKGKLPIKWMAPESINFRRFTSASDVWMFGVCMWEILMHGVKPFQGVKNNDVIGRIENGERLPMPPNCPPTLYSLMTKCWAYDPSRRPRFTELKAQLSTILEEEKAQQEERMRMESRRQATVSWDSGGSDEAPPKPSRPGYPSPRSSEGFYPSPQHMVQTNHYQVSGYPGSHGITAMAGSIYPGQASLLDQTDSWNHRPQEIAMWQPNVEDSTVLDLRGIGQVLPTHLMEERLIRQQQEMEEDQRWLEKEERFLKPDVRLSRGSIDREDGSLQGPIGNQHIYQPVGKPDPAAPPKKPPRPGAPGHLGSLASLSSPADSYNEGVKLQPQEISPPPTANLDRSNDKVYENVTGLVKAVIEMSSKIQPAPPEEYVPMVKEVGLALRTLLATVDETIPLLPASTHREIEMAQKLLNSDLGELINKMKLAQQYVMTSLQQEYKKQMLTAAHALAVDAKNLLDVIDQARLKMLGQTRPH", "assay": "SelectScreen Z'LYTE kinase profiling", "type": "biochemical", "conditions": "ATP at apparent KM", "protocol": "(§1) protein kinases at a compound concentration of 1 µM. Measurements were performed in duplicates\n(§2) and at the particular apparent ATP KM of each individual kinase employing the activity based Z’LYTE®\n(§3) kinase assay of the SelectScreen® Kinase Profiling Services (ThermoFisher Scientific).\n(§4) kinases at a compound concentration of 1 µM. Measurements were performed in duplicates and at\n(§5) the particular apparent ATP KM of each individual kinase employing the activity based Z’LYTE® kinase\n(§6) assay of the SelectScreen® Kinase Profiling Services (ThermoFisher Scientific)."}, "MKNK1 (MNK1)": {"molecular_target": "MKNK1 (MNK1) (Homo sapiens, UniProt Q9BUB5)", "sequence (Q9BUB5 whole entry)": "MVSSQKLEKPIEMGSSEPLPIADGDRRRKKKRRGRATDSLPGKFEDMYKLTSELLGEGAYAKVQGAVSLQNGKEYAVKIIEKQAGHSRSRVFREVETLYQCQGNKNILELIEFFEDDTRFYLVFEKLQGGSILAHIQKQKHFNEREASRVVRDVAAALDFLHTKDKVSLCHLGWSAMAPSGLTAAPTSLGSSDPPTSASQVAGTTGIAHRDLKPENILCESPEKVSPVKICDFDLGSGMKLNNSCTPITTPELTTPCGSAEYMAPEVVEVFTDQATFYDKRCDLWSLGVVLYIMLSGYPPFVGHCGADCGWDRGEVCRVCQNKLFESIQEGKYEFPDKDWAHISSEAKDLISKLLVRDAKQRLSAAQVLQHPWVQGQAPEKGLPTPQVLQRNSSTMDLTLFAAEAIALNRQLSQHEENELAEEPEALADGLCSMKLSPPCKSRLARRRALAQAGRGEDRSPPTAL", "assay": "SelectScreen Z'LYTE kinase profiling", "type": "biochemical", "conditions": "ATP at apparent KM", "protocol": "as §1, §2, §3, §4, §5, §6"}, "ROCK1": {"molecular_target": "ROCK1 (Homo sapiens, UniProt Q13464)", "assay": "SelectScreen Z'LYTE kinase profiling", "type": "biochemical", "conditions": "ATP at apparent KM", "protocol": "as §1, §2, §3, §4, §5, §6"}, "PRKCB2 (PKC beta II)": {"molecular_target": "PRKCB2 (PKC beta II) (Homo sapiens, UniProt P05771)", "assay": "SelectScreen Z'LYTE kinase profiling", "type": "biochemical", "conditions": "ATP at apparent KM", "protocol": "as §1, §2, §3, §4, §5, §6"}, "EPHA2": {"molecular_target": "EPHA2 (Homo sapiens, UniProt P29317)", "sequence (P29317 24-976)": "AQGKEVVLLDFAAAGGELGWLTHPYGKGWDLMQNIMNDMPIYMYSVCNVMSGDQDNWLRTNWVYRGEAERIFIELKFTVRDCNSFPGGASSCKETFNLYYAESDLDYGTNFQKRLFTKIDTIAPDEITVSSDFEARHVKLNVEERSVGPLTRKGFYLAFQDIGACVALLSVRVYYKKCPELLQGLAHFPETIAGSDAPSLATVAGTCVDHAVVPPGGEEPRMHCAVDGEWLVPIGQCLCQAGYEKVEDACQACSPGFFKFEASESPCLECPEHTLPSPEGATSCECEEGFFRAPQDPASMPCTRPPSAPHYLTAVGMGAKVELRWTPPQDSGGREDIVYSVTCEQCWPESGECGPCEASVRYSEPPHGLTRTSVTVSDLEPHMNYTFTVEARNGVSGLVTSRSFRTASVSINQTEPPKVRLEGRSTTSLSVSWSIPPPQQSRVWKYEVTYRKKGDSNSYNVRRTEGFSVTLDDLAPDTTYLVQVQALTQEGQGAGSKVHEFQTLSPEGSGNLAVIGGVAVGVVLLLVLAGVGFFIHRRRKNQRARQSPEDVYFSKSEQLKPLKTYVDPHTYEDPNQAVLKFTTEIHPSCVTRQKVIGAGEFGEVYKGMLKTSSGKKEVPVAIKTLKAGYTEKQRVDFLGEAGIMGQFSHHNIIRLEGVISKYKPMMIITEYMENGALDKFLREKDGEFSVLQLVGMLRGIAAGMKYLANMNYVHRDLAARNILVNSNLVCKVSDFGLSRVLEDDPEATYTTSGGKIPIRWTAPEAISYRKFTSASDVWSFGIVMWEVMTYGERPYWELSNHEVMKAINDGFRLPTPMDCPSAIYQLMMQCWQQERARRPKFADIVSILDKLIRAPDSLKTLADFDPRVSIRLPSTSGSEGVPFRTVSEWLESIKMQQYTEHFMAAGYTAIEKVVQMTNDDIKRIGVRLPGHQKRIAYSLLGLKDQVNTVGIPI", "assay": "SelectScreen Z'LYTE kinase profiling", "type": "biochemical", "conditions": "ATP at apparent KM", "protocol": "as §1, §2, §3, §4, §5, §6"}, "STK3 (MST2)": {"molecular_target": "T1, STK3 (MST2) (Homo sapiens, UniProt Q13188)", "T1 sequence (Q13188 1-491)": "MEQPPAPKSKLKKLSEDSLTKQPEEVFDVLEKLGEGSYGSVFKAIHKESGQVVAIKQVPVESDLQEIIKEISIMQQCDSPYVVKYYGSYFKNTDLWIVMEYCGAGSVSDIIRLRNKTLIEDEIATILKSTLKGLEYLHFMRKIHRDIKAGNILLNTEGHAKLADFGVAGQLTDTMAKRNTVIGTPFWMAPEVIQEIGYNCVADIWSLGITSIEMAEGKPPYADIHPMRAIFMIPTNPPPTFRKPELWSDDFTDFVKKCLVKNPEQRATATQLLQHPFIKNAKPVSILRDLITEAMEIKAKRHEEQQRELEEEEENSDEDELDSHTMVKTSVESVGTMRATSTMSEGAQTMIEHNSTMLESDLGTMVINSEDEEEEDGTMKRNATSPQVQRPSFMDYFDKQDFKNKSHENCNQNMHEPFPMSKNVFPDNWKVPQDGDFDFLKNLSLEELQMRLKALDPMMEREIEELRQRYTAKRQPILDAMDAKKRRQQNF", "assay": "SelectScreen Z'LYTE kinase profiling", "type": "biochemical", "conditions": "ATP at apparent KM", "protocol": "as §1, §2, §3, §4, §5, §6"}, "PASK": {"molecular_target": "PASK (Homo sapiens, UniProt Q96RG2)", "sequence (Q96RG2 whole entry)": "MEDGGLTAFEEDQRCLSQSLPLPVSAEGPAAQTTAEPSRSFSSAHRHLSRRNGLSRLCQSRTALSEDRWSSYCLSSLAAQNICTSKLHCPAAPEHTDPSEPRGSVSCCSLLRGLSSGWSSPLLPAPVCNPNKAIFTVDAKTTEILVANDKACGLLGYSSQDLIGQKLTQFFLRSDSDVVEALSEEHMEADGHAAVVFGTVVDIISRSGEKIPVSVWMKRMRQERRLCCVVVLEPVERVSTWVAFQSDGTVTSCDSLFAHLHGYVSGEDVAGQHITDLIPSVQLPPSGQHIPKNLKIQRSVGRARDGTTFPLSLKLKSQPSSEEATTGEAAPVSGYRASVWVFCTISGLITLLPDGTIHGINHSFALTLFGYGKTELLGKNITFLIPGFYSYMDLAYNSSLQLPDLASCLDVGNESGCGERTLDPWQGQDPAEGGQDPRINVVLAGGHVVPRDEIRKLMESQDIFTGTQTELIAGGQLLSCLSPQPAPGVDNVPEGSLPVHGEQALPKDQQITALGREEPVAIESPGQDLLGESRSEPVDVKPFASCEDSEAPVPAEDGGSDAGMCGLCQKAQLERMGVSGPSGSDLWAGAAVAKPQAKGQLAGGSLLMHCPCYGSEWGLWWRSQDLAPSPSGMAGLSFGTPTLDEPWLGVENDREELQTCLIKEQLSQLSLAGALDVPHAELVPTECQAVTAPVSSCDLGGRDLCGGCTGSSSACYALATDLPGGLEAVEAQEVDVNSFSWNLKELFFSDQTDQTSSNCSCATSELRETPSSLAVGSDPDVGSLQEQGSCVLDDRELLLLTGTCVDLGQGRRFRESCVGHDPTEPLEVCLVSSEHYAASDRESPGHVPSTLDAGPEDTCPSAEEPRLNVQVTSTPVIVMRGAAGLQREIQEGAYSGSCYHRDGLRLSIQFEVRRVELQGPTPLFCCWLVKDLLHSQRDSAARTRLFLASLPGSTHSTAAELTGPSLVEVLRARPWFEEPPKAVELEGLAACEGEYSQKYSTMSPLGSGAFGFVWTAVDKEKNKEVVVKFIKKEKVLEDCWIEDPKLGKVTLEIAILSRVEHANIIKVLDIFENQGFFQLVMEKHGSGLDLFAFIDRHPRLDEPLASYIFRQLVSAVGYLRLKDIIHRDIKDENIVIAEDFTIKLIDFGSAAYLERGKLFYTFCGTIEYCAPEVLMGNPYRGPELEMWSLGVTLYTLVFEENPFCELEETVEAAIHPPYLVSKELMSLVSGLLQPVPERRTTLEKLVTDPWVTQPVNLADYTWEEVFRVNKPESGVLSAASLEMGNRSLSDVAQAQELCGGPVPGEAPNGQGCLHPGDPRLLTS", "assay": "SelectScreen Z'LYTE kinase profiling", "type": "biochemical", "conditions": "ATP at apparent KM", "protocol": "as §1, §2, §3, §4, §5, §6"}, "[1]": {"assay": "Phase I metabolic stability assay", "conditions": "human, liver microsomes", "protocol": "For this purpose, we used a microsomal stability assay that is a good predictor for phase I metabolic stability.[50]\nMetabolic stability under oxidative conditions was determined by LCMS-based measuring of\ndegradation of compounds at 3 µM in human and murine liver microsomes over 60 minutes at 37 °C\nCalculating the compound half-life t1/2, the in vitro intrinsic clearance CLint is"}, "[2]": {"molecular_target": "MAPK14 (p38 alpha) Direct (Homo sapiens, UniProt Q16539)", "sequence (Q16539 whole entry)": "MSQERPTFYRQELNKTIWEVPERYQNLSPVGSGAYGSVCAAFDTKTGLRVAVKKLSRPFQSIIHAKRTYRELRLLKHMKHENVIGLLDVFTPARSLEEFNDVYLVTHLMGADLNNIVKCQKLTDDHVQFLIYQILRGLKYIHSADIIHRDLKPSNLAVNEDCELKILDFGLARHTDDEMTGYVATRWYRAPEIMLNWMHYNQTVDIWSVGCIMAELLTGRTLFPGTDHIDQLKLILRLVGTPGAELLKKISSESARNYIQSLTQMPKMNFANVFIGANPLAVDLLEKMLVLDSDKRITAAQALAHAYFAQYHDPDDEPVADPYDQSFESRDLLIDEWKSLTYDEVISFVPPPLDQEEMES", "assay": "SelectScreen Z'LYTE kinase profiling", "type": "biochemical", "conditions": "ATP at apparent KM", "protocol": "as §1, §2, §3, §4, §5, §6"}, "BMX": {"molecular_target": "T2, BMX (Homo sapiens, UniProt P51813)", "T2 sequence (P51813 1-675)": "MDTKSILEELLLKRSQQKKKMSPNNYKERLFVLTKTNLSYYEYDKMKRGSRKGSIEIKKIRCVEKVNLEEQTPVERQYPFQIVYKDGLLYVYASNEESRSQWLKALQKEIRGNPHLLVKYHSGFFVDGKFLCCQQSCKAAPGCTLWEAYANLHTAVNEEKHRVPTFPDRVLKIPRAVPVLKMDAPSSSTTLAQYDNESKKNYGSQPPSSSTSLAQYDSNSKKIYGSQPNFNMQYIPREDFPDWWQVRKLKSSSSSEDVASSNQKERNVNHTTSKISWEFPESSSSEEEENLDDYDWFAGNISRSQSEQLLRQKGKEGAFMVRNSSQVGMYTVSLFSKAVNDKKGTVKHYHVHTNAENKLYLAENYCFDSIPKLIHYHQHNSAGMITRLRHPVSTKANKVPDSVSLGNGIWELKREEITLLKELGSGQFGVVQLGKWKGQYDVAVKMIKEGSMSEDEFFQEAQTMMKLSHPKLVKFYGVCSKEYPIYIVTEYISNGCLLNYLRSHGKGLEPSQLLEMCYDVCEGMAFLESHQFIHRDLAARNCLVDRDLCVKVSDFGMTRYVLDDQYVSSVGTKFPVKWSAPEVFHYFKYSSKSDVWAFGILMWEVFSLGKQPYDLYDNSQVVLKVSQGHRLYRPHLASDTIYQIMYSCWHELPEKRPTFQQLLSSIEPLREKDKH", "assay": "SelectScreen Z'LYTE kinase profiling", "type": "biochemical", "conditions": "ATP at apparent KM", "protocol": "as §1, §2, §3, §4, §5, §6"}, "CDC42 BPA (MRCKA)": {"molecular_target": "CDC42 BPA (MRCKA) (Homo sapiens, UniProt Q5VT25)", "assay": "SelectScreen Z'LYTE kinase profiling", "type": "biochemical", "conditions": "ATP at apparent KM", "protocol": "as §1, §2, §3, §4, §5, §6"}, "ACVR1B (ALK4)": {"molecular_target": "T3, ACVR1B (ALK4) (Homo sapiens, UniProt P36896)", "T3 sequence (P36896 24-505)": "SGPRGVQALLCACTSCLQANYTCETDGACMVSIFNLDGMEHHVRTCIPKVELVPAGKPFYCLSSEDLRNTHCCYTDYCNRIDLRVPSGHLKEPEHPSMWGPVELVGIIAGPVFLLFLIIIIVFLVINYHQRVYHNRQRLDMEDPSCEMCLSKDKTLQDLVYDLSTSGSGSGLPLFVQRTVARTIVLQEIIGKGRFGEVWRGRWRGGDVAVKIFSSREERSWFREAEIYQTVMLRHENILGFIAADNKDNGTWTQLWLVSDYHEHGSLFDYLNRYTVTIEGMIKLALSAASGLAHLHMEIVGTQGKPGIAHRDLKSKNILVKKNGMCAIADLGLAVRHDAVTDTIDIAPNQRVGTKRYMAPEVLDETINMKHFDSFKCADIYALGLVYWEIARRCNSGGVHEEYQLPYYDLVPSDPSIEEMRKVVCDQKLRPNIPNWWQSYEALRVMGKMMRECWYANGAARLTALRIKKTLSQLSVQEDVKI", "assay": "SelectScreen Z'LYTE kinase profiling", "type": "biochemical", "conditions": "ATP at apparent KM", "protocol": "as §1, §2, §3, §4, §5, §6"}, "CAMK1D (CaMKI delta)": {"molecular_target": "CAMK1D (CaMKI delta) (Homo sapiens, UniProt Q8IU85)", "sequence (Q8IU85 whole entry)": "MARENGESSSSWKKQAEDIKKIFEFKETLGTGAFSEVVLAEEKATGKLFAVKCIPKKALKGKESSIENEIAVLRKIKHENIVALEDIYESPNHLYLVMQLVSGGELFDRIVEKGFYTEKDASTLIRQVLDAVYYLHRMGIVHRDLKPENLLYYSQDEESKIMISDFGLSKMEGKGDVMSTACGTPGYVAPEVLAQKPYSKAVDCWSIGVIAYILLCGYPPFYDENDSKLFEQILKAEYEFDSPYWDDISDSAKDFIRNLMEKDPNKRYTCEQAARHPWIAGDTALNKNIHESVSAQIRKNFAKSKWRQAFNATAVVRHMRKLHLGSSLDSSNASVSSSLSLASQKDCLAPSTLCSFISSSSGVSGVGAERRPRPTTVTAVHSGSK", "assay": "SelectScreen Z'LYTE kinase profiling", "type": "biochemical", "conditions": "ATP at apparent KM", "protocol": "as §1, §2, §3, §4, §5, §6"}, "RPS6KB1 (p70S6K)": {"molecular_target": "RPS6KB1 (p70S6K) (Homo sapiens, UniProt P23443)", "sequence (P23443 whole entry)": "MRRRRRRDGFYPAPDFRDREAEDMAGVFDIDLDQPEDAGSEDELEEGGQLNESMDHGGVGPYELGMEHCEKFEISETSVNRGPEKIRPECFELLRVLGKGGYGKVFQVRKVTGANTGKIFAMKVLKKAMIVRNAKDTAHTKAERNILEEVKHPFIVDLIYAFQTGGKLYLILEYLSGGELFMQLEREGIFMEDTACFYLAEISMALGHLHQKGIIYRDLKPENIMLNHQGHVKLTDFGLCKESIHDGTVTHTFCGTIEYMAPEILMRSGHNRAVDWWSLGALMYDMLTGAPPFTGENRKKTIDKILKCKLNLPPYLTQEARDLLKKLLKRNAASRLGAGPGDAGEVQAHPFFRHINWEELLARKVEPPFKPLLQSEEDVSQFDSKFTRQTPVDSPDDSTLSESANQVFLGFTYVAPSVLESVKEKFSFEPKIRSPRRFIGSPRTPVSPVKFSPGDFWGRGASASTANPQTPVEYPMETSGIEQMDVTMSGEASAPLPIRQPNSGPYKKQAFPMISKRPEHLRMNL", "assay": "SelectScreen Z'LYTE kinase profiling", "type": "biochemical", "conditions": "ATP at apparent KM"}},
  "data": [
    {"smiles": "C=CC(=O)Nc1cccc(C(=O)NC2CCN(Cc3ccc(-c4nc5cc[nH]c(=O)c5cc4-c4ccccc4)cc3)CC2)c1", "note": "[30b]", "values": [
      {"measurement": "inhibition at 1 µM", "setting": "PTK2 (FAK)", "result": -4, "unit": "%"},
      {"measurement": "inhibition at 1 µM", "setting": "MKNK1 (MNK1)", "result": 10, "unit": "%"},
      {"measurement": "inhibition at 1 µM", "setting": "ROCK1", "result": 34, "unit": "%"},
      {"measurement": "inhibition at 1 µM", "setting": "PRKCB2 (PKC beta II)", "result": -1, "unit": "%"},
      {"measurement": "inhibition at 1 µM", "setting": "EPHA2", "result": 4, "unit": "%"},
      {"measurement": "inhibition at 1 µM", "setting": "STK3 (MST2)", "result": -19, "unit": "%"},
      {"measurement": "inhibition at 1 µM", "setting": "PASK", "result": 29, "unit": "%"},
      {"measurement": "half-life at 1 h, 3 µM", "setting": "[1]", "result": 58, "unit": "min"},
      {"measurement": "microsomal CLint at 3 µM", "setting": "[1]", "result": 8, "unit": "µL/min/mg"},
      {"measurement": "inhibition at 1 µM", "setting": "[2]", "result": 6, "unit": "%"},
      {"measurement": "inhibition at 1 µM", "setting": "BMX", "result": 44, "unit": "%"},
      {"measurement": "inhibition at 1 µM", "setting": "CDC42 BPA (MRCKA)", "result": 2, "unit": "%"},
      {"measurement": "inhibition at 1 µM", "setting": "ACVR1B (ALK4)", "result": 0, "unit": "%"},
      {"measurement": "inhibition at 1 µM", "setting": "CAMK1D (CaMKI delta)", "result": 3, "unit": "%"},
      {"measurement": "inhibition at 1 µM", "setting": "RPS6KB1 (p70S6K)", "result": 8, "unit": "%"}
    ]},
    {"smiles": "C=CC(=O)Nc1cc(NC(=O)NC2CCN(Cc3ccc(-c4nc5cc[nH]c(=O)c5cc4-c4ccccc4)cc3)CC2)ccc1Cl", "note": "[compound 27]", "values": [
      {"measurement": "inhibition at 1 µM", "setting": "PTK2 (FAK)", "result": -1, "unit": "%"},
      {"measurement": "inhibition at 1 µM", "setting": "MKNK1 (MNK1)", "result": 29, "unit": "%"},
      {"measurement": "inhibition at 1 µM", "setting": "ROCK1", "result": 54, "unit": "%"},
      {"measurement": "inhibition at 1 µM", "setting": "PRKCB2 (PKC beta II)", "result": -12, "unit": "%"},
      {"measurement": "inhibition at 1 µM", "setting": "EPHA2", "result": -3, "unit": "%"},
      {"measurement": "inhibition at 1 µM", "setting": "STK3 (MST2)", "result": -3, "unit": "%"},
      {"measurement": "inhibition at 1 µM", "setting": "PASK", "result": 61, "unit": "%"},
      {"measurement": "half-life at 1 h, 3 µM", "setting": "[1]", "result": 19, "unit": "min"},
      {"measurement": "microsomal CLint at 3 µM", "setting": "[1]", "result": 24, "unit": "µL/min/mg"},
      {"measurement": "inhibition at 1 µM", "setting": "[2]", "result": 10, "unit": "%"},
      {"measurement": "inhibition at 1 µM", "setting": "BMX", "result": 3, "unit": "%"},
      {"measurement": "inhibition at 1 µM", "setting": "CDC42 BPA (MRCKA)", "result": 8, "unit": "%"},
      {"measurement": "inhibition at 1 µM", "setting": "ACVR1B (ALK4)", "result": -8, "unit": "%"},
      {"measurement": "inhibition at 1 µM", "setting": "CAMK1D (CaMKI delta)", "result": 12, "unit": "%"},
      {"measurement": "inhibition at 1 µM", "setting": "RPS6KB1 (p70S6K)", "result": 29, "unit": "%"}
    ]},
    {"smiles": "C=CC(=O)Nc1ccc2c(c1)n(C1CCN(Cc3ccc(-c4nc5cc[nH]c(=O)c5cc4-c4ccccc4)cc3)CC1)c(=O)n2C", "note": "[24b]", "values": [
      {"measurement": "inhibition at 1 µM", "setting": "PTK2 (FAK)", "result": -20, "unit": "%"},
      {"measurement": "inhibition at 1 µM", "setting": "MKNK1 (MNK1)", "result": -22, "unit": "%"},
      {"measurement": "inhibition at 1 µM", "setting": "ROCK1", "result": 16, "unit": "%"},
      {"measurement": "inhibition at 1 µM", "setting": "PRKCB2 (PKC beta II)", "result": -5, "unit": "%"},
      {"measurement": "inhibition at 1 µM", "setting": "EPHA2", "result": -6, "unit": "%"},
      {"measurement": "inhibition at 1 µM", "setting": "STK3 (MST2)", "result": -13, "unit": "%"},
      {"measurement": "inhibition at 1 µM", "setting": "PASK", "result": 4, "unit": "%"},
      {"measurement": "half-life at 1 h, 3 µM", "setting": "[1]", "result": 25, "unit": "min"},
      {"measurement": "microsomal CLint at 3 µM", "setting": "[1]", "result": 19, "unit": "µL/min/mg"},
      {"measurement": "inhibition at 1 µM", "setting": "[2]", "result": 2, "unit": "%"},
      {"measurement": "inhibition at 1 µM", "setting": "BMX", "result": 28, "unit": "%"},
      {"measurement": "inhibition at 1 µM", "setting": "CDC42 BPA (MRCKA)", "result": 3, "unit": "%"},
      {"measurement": "inhibition at 1 µM", "setting": "ACVR1B (ALK4)", "result": -1, "unit": "%"},
      {"measurement": "inhibition at 1 µM", "setting": "CAMK1D (CaMKI delta)", "result": 9, "unit": "%"},
      {"measurement": "inhibition at 1 µM", "setting": "RPS6KB1 (p70S6K)", "result": 32, "unit": "%"}
    ]}
  ]
}
